According to PMC10285950 (ACS Omega, 2023):
“And” between values parts separate entries of the source, which are not always exact repeats. Equal values may be shown once.

Assays:
5-HT7AR [1] = biological target: T1, 5-HT7AR (Homo sapiens, UniProt P34969); test: HEK-5HT7A/cAMP; assay type: cell-based
5-HT7AR [2] = biological target: T1, 5-HT7AR; test: HEK-5HT7A/cAMP; assay type: cell-based; remark: listed apart in the source
human 5HT1A receptor = biological target: T2, human 5HT1A receptor (Homo sapiens, UniProt P08908); test: [3H]8-OH-DPAT binding at the 5-HT1A receptor; details: HEK-h5HT1A membranes
T2 sequence (P08908 1-422): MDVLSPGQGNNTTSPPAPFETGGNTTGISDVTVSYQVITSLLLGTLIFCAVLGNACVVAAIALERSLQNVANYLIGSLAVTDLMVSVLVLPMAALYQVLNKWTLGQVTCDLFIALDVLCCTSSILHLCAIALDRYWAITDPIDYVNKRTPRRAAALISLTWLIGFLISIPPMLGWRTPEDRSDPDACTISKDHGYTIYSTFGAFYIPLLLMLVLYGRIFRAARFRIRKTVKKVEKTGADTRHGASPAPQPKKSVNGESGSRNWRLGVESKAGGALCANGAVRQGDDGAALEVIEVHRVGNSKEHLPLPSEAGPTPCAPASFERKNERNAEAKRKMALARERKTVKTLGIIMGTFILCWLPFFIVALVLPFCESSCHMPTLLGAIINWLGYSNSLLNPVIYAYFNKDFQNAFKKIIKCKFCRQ

h5HT7A receptor = h5HT7A receptor (Homo sapiens, UniProt P34969); test: [3H]5-HT binding at 5HT7A receptors; details: HEK cells transiently transfected with h5HT7A
h5HT7A receptor, sequence (P34969 1-445 isoform P34969-2): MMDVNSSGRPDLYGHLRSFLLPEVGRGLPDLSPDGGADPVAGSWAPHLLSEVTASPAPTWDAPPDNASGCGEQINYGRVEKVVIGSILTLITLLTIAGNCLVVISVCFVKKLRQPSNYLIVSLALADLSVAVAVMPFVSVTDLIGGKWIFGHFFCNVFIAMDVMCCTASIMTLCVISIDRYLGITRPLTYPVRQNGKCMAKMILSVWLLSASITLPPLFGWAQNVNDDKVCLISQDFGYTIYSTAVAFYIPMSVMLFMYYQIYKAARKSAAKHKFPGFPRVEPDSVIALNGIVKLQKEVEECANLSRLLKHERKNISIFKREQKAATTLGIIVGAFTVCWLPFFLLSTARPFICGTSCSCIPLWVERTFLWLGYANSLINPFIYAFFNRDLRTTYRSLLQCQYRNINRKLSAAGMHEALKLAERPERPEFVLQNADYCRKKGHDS

[3] = biological target: T3, 5-HT1AR (HEK-h5HT1A membranes) (Homo sapiens, UniProt P08908); test: HEK-5HT1A [35S]GTPγS binding functional assay; assay type: biochemical; details: for 5-HT1AR [35S]GTPγS assay % max ± SEM: maximal effect normalized to maximal effect of serotonin; for functional character at 5-HT1AR ([35S]GTPγS assay): result in words
T3 sequence (P08908 1-422): T2 sequence (P08908 1-422)

T1 sequence (P34969 1-445 isoform P34969-2): as above

agonist activity at 5-HT7AR (5-HT7AR [1]; result in words)	5-HT7AR adenylate cyclase % max inhib. ± SEM (5-HT7AR [2]; maximal inhibition of cAMP formation defined with 10 μM lurasidone) [%]	5-HT7AR [3H]5-HT binding hill slope ± SEM (h5HT7A receptor)	inhibition (5-HT7AR [2]; read-out: 5-HT7AR adenylate cyclase % max inhib. ± SEM) [%]	Structure (SMILES)	5-HT1AR [3H]8-OH-DPAT binding hill slope ± SEM (human 5HT1A receptor)	5-HT1AR [35S]GTPγS assay % max ± SEM [3]	functional character at 5-HT1AR ([35S]GTPγS assay) [3]	5-HT7AR adenylate cyclase % max ± SEM (5-HT7AR [1]; agonist effect, normalized to maximal serotonin effect)	5-HT1AR [35S]GTPγS assay % max ± SEM ([3]; listed as serotonin (5-HT)) [%]
do not show any agonist activity	94.7 ± 4.1	–0.59 ± 0.03	–	CC1(CCCN2CCN(c3ccccn3)CC2)Cc2cc(Cl)ccc2C1=O (racemic) [SYA0340, 5-chloro-2-methyl-2-(3-(4-(pyridin-2-yl)piperazin-1-yl)propyl)-2,3-dihydro-1H-inden-1-one]	–0.66 ± 0.09	101.5% and 101.5 ± 2.8%	full agonist	–	–
–	–	–0.76 ± 0.11	98 ± 2	O=C1[C@@H]2[C@H]3CC[C@H](C3)[C@@H]2C(=O)N1C[C@@H]1CCCC[C@H]1CN1CCN(c2nsc3ccccc23)CC1 [lurasidone]	–	–	–	–	–

Structure (SMILES)	agonist activity at 5-HT7AR (5-HT7AR [1]; result in words)	5-HT7AR adenylate cyclase % max inhib. ± SEM (5-HT7AR [2]; maximal inhibition of cAMP formation defined with 10 μM lurasidone) [%]	5-HT7AR [3H]5-HT binding hill slope ± SEM (h5HT7A receptor)	inhibition (5-HT7AR [2]; read-out: 5-HT7AR adenylate cyclase % max inhib. ± SEM) [%]	5-HT1AR [3H]8-OH-DPAT binding hill slope ± SEM (human 5HT1A receptor)	5-HT1AR [35S]GTPγS assay % max ± SEM [3]	functional character at 5-HT1AR ([35S]GTPγS assay) [3]	5-HT7AR adenylate cyclase % max ± SEM (5-HT7AR [1]; agonist effect, normalized to maximal serotonin effect)	5-HT1AR [35S]GTPγS assay % max ± SEM ([3]; listed as serotonin (5-HT)) [%]
NCCc1c[nH]c2ccc(O)cc12 [5-HT, serotonin]	–	–	–1.07 ± 0.09	–	–0.96 ± 0.06	101.2 ± 1.1%	full agonist	95.8% and 95.8 ± 1.6%	101.2
